Data as given in patent US20260200849A1, “CATIONIC LIPIDS AND PREPARATION METHOD THEREOF” (RiboX Therapeutics HK Limited, priority 2024, published 2026).
Where “and” joins values, the source holds several entries; their conditions need not be identical. Identical values can stand only once.

How the values were obtained:
Hep G2 cells [1] = assay: In vitro expression: luciferase activity in Hep G2 cells transfected with RNA-LNPs; assay type: cell-based; conditions: 100 ng/mL RNA-LNPs, 72 hours post transfection
Protocol: 2E5 Hep G2 cells were transfected with 100 ng/mL of RNA-LNPs encoding for firefly-luciferase. At 72 hours post transfection, the cells were washed and lysed. The luciferase expression (2-well repeat) was determined in the cell lysates with the luciferase assay reagent kit (Promega), according to the kit protocol, luciferase activity was measured by a luminometer.

[2] = RNA encapsulation efficacy (EE %) by Quant-IT Ribogreen kit; assay type: physicochemical; conditions: LNP
Protocol: (§1) The LNP size and polydispersity index (PDI), determined by dynamic light scattering (DLS), and zeta potential were measured by a Zetasizer machine (Malvern). RNA concentration and encapsulation efficacy (EE %) were analyzed by the Quant-IT Ribogreen kit by calculating the percentage encapsulation at 100%—(RNA-LNPs/RNA-LNPs with Triton X-100).

[3] = LNP size and polydispersity index (PDI) by dynamic light scattering (Zetasizer); assay type: physicochemical; conditions: for Size (nm): Formulation No. 010 (Ionizable lipid:DSPC:cholesterol:DSPE-PEG2000 = 38:30:30:2, N/P 6), RNA No. 331
Protocol: as §1

injection site skin = assay: In vivo tolerability after intradermal injection: H&E staining of injection site skin; design: species or system C57BL/6J mice; key to Infiltration, mononuclear cells, dermis/subcutaneous, focal, Grade / Edema, subcutaneous, focal, Grade / Erosion, focal, Grade / Skin, Grade: 1==minimal; 2=mild; 3=moderate; 4=marked; 5=severe; N=Normal; NA=Not applicable; —=No data; conditions: intradermal 0.15 mg/kg, 72 h, Formulation 001, RNA 331; for Edema, subcutaneous, focal, Grade / Erosion, focal, Grade / Infiltration, mononuclear cells, dermis/subcutaneous, focal, Grade: per animal; for Total score: sum of lesion grades of the group (N=3)
Protocol: 7-8 week old, female C57BL/6J mice (N=3) were injected with 0.15 mg*kg−1 of RNA-LNIPs encoding for firefly-luciferase by intradermal injection. At 72-hours post injection, injection site skin from each animal was collected in 10% formalin, for H&E staining. PBS group (N=2) as control. (Note: 1==minimal, 2=mild, 3=moderate, 4=marked, 5=severe; N=Normal; NA=Not applicable; —=No data)

C57BL/6J mice [4] = assay: In vivo expression by ID, whole-body/injection site skin/lymph node luminescence; conditions: intradermal 0.15 mg/kg, 72 h post injection, female C57BL/6J mice N=3, Formulation 001, RNA 331
Protocol: 7-8 week old, female C57BL/6J mice (N=3) were injected with 0.15 mg*kg−1 of RNA-LNPs encoding for firefly-luciferase by intradermal injection. At 72-hours post injection, animals were intraperitoneally injected with 15 mg/mi of Luciferin substrate and whole-body/injection site skin/lymph node luminescence were determined by a bioluminescent in vivo imaging system (IVIS).

C57BL/6J mice [5] = assay: In vivo expression by IM, luciferase RNA-LNPs, whole-body/injection site muscle/organ luminescence; conditions: IM 1.0 mg/kg, 24 h post injection, male C57BL/6J mice N=3, Formulation 001, RNA 331
Protocol: 6-8 week old, male C57BL/6J mice (N=3) were injected with 1.0 mg*kg−1 of RNA-LNPs encoding for firefly-luciferase by intramuscular injection. At 24-hours post injection, animals were intraperitoneally injected with 15 mg/ml of Luciferin substrate and whole-body/injection site muscle/liver/spleen/kidney/heart/lung luminescence were determined by a bioluminescent in vivo imaging system (IVIS).

Balb/c mice = assay: In vivo expression by IV, 0.05 mg/kg luciferase RNA-LNPs, IVIS luminescence; conditions: Formulation No. 010, RNA No. 331, female Balb/c mice, 0.05 mg*kg−1 intravenous; for Whole body at 24 h (p/s) (Mean): 24 hours post injection; for Whole body at 72 h (p/s) (Mean): 72 hours post injection
Outline: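 Female Balb/c mice (7-8 weeks, N=3) received 0.05 mg*kg−1 firefly-luciferase RNA-LNPs IV. Luciferin (15 mg/ml) was given IP at 24 and 72 h post-dose for IVIS whole-body luminescence. A second run imaged whole body, liver and spleen at 24 h only.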

IL-6 = assay: In vivo tolerability by IM: serum IL-6 by Luminex; conditions: IM 1.0 mg/kg, male C57BL/6J mice N=3, Formulation 001, RNA 331
Protocol: (§2) 6-8 week old, male C57BL/6J mice (N=3) were injected with 1.0 mg*kg−1 of RNA-LNPs encoding for firefly-luciferase by intramuscular injection. At 2- and 24-hours post injection, about 40 μL blood was harvested and immediately added to the procoagulant containing tube. Stand for 30 min at room temperature and then centrifuged at 2500 g×10 min to obtain serum. About 15 μL serum samples were aliquoted for cytokine (MCP-1 and IL-6) detection by Luminex (ProcartaPlex Mouse 2-plex, Thermo). PBS group as negative control.

Hep G2 cells [6] = assay: In vitro toxicity: Hep G2 cell viability by CellTiter-Glo; assay type: cell-based; conditions: 72 hours post transfection, cell only = 100%
Protocol: 2E5 Hep G2 cells were transfected with 1 μg/mL RNA-LNPs. At 72 hours post transfection, cell viability (2-well repeat) was determined with the CellTiter-Glo® reagent kit, according to the kit protocol, measured by a luminometer. Cell only as control (100%).
The cell viability was calculated according to the following formula: […]

MCP-1 = assay: In vivo tolerability by IM: serum MCP-1 by Luminex; conditions: IM 1.0 mg/kg, male C57BL/6J mice N=3, Formulation 001, RNA 331
Protocol: as §2

[7] = Formulation No. 010, RNA No. 331 (firefly-luciferase)
[8] = Formulation No. 001, RNA No. 331
[9] = Formulation No. 010, RNA No. 331
[10] = 1 μg/mL RNA-LNPs, Formulation 001, RNA 331
[11] = Formulation No. 010, RNA No. 331, 1 μg/mL RNA-LNPs

SMILES	In vitro Expression (Mean) (Hep G2 cells [1]; Formulation 001, RNA 331)	In vitro Expression (Mean) (Hep G2 cells [1]; [7])	EE (%) [2, 8] [%]	EE (%) [2, 9] [%]	PDI [3, 8]	Size [3, 8] [nm]	Size (nm) [3] [nm]	PDI [3, 9]	Edema, subcutaneous, focal, Grade (injection site skin)	Erosion, focal, Grade (injection site skin)	Infiltration, mononuclear cells, dermis/subcutaneous, focal, Grade (injection site skin)	Total score (injection site skin)	Injection site Skin (p/s) (C57BL/6J mice [4])	Lymph node (p/s) (C57BL/6J mice [4])	Whole body (p/s) (C57BL/6J mice [4])	Heart (p/s) (C57BL/6J mice [5])	Injection site muscle (p/s) (C57BL/6J mice [5])	Kidney (p/s) (C57BL/6J mice [5])	Liver (p/s) (C57BL/6J mice [5])	Lung (p/s) (C57BL/6J mice [5])	further results
CCCCCCCC/C=C\CCCCCCCC(=O)NC(COC(=O)NCCN1CCCCCC1)C(=O)OCCCCCCCCOC(=O)C(CCCCCC)CCCCCCCC (stereo not drawn) [Lipid 701]	6.00E+05	3.96E+05	92.16	95.09	0.10	76.05	60.60	0.07	— and 1 (2×)	—	1	5	3.34E+07	6.94E+06	6.46E+07	9.37E+05	5.32E+08	2.70E+07	2.35E+08	2.10E+06	Spleen (p/s) (C57BL/6J mice [5]): 1.24E+08 p/s; Whole body (p/s) (C57BL/6J mice [5]): 8.27E+08 p/s; Whole body at 24 h (p/s) (Mean) (Balb/c mice): 4.00E+08 p/s; Whole body at 72 h (p/s) (Mean) (Balb/c mice): 1.08E+08 p/s; IL-6 at 2 h (IL-6): 21.2 pg/mL; IL-6 at 24 h (IL-6): 108 pg/mL; In vitro cell viability (%) (Mean) (Hep G2 cells [6]; [10]): 74.24%; In vitro cell viability (%) (Mean) (Hep G2 cells [6]; [11]): 96.43%; MCP-1 at 2 h (MCP-1): 628 pg/mL; MCP-1 at 24 h (MCP-1): 4620 pg/mL
CCCCC/C=C\C/C=C\CCCCCCCC(=O)NC(COC(=O)NCCN1CCCCC1)C(=O)OCCCCCC(=O)OCC(CCCCCCCC)CCCCCCCCCC (stereo not drawn) [Lipid 728]	3.37E+05	4.71E+05	96.53	96.83	0.05	65.33	56.88	0.09	— (2×) and 1	—	1	4	4.04E+06	1.03E+06	3.58E+07	4.42E+05	5.61E+08	1.42E+07	7.48E+07	1.56E+06	Spleen (p/s) (C57BL/6J mice [5]): 3.40E+07 p/s; Whole body (p/s) (C57BL/6J mice [5]): 6.11E+08 p/s; Whole body at 24 h (p/s) (Mean) (Balb/c mice): 1.86E+08 p/s; Whole body at 72 h (p/s) (Mean) (Balb/c mice): 5.78E+07 p/s; IL-6 at 2 h (IL-6): 24.3 pg/mL; IL-6 at 24 h (IL-6): 143 pg/mL; In vitro cell viability (%) (Mean) (Hep G2 cells [6]; [10]): 71.13%; In vitro cell viability (%) (Mean) (Hep G2 cells [6]; [11]): 90.20%; MCP-1 at 2 h (MCP-1): 421 pg/mL; MCP-1 at 24 h (MCP-1): 3740 pg/mL
